The values below come from patent publication US20090131512A1, “Inhibition of type I in IFN production” (Dynavax Technologies Corp., priority 2007, published 2009).

One data set has as its system purified human pDC. Kind of data set: IFN-α production by TLR-activated purified pDC, ELISA. The format is cell-based. The following applies: for IFN-α production: subunit-specific PI3K inhibitors. For orientation: An ELISA detects its analyte on a solid surface through an enzyme-linked reagent.
Data set [1] has as its system purified pDC. Description: pDC viability, flow cytometry based LIVE/DEAD assay. The class given is cell-based, human. The settings on record: CpG-C 1 μM plus various concentrations of LY; 20 h; listed as LY. As to the method: Purified pDC were stimulated with CpG-C ISS (1 μM) either alone or in combination with various concentration of PI3K inhibitor LY. After 20 h, viability was assessed using a flow cytometry based viability assay (LIVE/DEAD Viability/Cytotoxicity Kit from Molecular Probe). Average of […] independent donors is shown.
Background: Flow cytometry measures light scatter and fluorescence of single cells or particles in a stream.

In data set [2] the test system is purified pDC. Kind of data set: IL-6 and TNF-α production by TLR-activated pDC, ELISA and real-time PCR. The class given is cell-based, human. The following applies: CpG-A or CpG-B 0.5 μM; 16 hr; ELISA.
The test system of the next data set is NF-kB p65 (pS529). Kind of data set: NF-kB p65 phosphorylation in pDC, flow cytometry. The format is cell-based, human. The settings on record: CpG-C 1 μM; LY 1 or 5 μM, NF-kB inhibitor 0.5 μM; 90 min. As to the method:
Accordingly, purified PDC were cultured with CpG-C ISS (1 μM) with or without PI3K inhibitor LY (1 μM or 5 μM) or NF-kB inhibitor (0.5 μM) for 90 min and analyzed by NF-kB flow cytometry. As described above, negatively purified pDC were stimulated with CpG-C and cells were immediately fixed with 4% of paraformaldehyde for 15 min a 37 C. Cells were then washed, permeabilized with PermBuffer III (BD bioscience) for 30 minutes on ice and stained with either Alexa-647 anti-human NF-kB p65 (pS529) for 30 min and then analyzed by flow cytometry.

Entries after “also recorded” stand apart in the source; their conditions may differ.

Take `O=c1cc(N2CCOCC2)oc2c(-c3ccccc3)cccc12` [LY294002]: in the data set with purified human pDC (LY concentrations as low as 0.08 μM, TLR9), the “inhibition of IFN-α” value is on record as 50%. Besides, the “concentration of maximal effect on IFN-α production” value in the data set on purified human pDC (both TLR7 and TLR9 ligands, 16 hr) was found to be 1.25 µM. Further, in the data set on purified pDC [1], the pDC viability entry is reported as “no negative effect; also recorded: does not affect”. For the same compound, the “IL-6 production in response to CpG-A and CpG-B” value in the data set with purified pDC [2] is “no significant inhibition”.

For `O=C1NC(=O)/C(=C/c2ccc3c(c2)OC(F)(F)O3)S1` [AS604850], the “concentration at which an effect on IFN-α production is observed” value in the data set on purified human pDC (CpG-C 1 μM, 16 hr, specificity for gamma subunit lost) was > 20 µM. In addition, the IFN-α production entry in the data set on purified human pDC (CpG-C 1 μM, 16 hr) was “did not observe any effect”.

As to `Cc1ccccc1-n1c(Cn2cnc3c(N)ncnc32)nc2cccc(C)c2c1=O` [IC87114], the IFN-α production entry with purified human pDC (CpG-C 1 μM, 16 hr) is “inhibited”.

`NC(=O)Nc1sc(-c2ccc(F)cc2)cc1C(N)=O` [NF-kB inhibitor]: the NF-kB phosphorylation entry with NF-kB p65 (pS529) is recorded as “inhibited”.
